Here are results for eight compounds from patent US20170107203A1, “HETEROCYCLIC INHIBITORS OF THE SODIUM CHANNEL” (EPIRUS BIOPHARMACEUTICALS, INC., priority 2014, published 2017).

For this test, the target named is T1, human Nav1.7 (Homo sapiens, UniProt Q15858).
T1 construct: expressed in transfected cells
The test can be described thus: Assessment of Nav1.7 activity on PatchXpress (voltage dependence / slow inactivation parameters). It is filed as cell-based. The conditions noted are these: compound at 10 μM, relative to 0.2% DMSO vehicle control; for hNav1.7: Reduction in current at 20 mV (normalized data) Delta Ratio: before/after 30 sec conditioning pulse at 20 mV; for hNav1.7: Shift in voltage dependence of inactivation (mV) Delta Vhalf: PatchXpress. As to the method: The generation of a HEK 293F cell line stably expressing human Nav1.7/Navp1 was achieved by co-transfecting human SCN9A and human SCN1B cDNAs, subcloned into plasmid vectors, utilizing standard transfection techniques. Clones were selected using appropriate selection agents (0.3 mg/mL Zeocin and 0.8 mg/mL Geneticin) and maintained in Dulbecco's Modified Eagle medium, 10% fetal bovine serum, 1% non-essential amino acids to ˜80% confluence at 37° C. in a humidified incubator with 95% atmosphere and 5% CO2.
On the day of each experiment, cells that were grown to 80% confluence in a T75 flask were harvested for use on PatchXpress (Molecular Devices, CA, USA). Following a recovery period at 37° C. in a humidified incubator with 95% atmosphere and 5% CO2 in Dulbecco's Modified Eagle Medium, the media was replaced with an external recording solution containing (in mM): 90 TEACI, 50 NaCl, 1.8 CaCl2, 1 MgCl2, 10 HEPES, 10 glucose, adjusted to pH 7.4 with TEAOH and 300 mOsm with sucrose. The internal recording solution contained (in mM): 129 CsF, 2 MgCl2, 11 EGTA, 10 HEPES, 6 NaCl, 3 Na2ATP adjusted to pH 7.2 with CsOH and 280 mOsm with sucrose. The automated liquid handling facility of PatchXpress dispensed cells and added compound. Modulation of Nav1.7 channels by compounds was assessed by promoting the channels into the inactivated state using a conditioning voltage pulse of variable amplitude, followed by a brief hyperpolarizing pulse with a subsequent depolarized voltage step to measure the current amplitude in the presence and absence of compound. Compounds were assayed at 10 μM. Based upon this Patch express protocol, four electrophysiological parameters were measured relative to a 0.2% DMSO vehicle control (Table 2).

T1 sequence (Q15858 whole entry): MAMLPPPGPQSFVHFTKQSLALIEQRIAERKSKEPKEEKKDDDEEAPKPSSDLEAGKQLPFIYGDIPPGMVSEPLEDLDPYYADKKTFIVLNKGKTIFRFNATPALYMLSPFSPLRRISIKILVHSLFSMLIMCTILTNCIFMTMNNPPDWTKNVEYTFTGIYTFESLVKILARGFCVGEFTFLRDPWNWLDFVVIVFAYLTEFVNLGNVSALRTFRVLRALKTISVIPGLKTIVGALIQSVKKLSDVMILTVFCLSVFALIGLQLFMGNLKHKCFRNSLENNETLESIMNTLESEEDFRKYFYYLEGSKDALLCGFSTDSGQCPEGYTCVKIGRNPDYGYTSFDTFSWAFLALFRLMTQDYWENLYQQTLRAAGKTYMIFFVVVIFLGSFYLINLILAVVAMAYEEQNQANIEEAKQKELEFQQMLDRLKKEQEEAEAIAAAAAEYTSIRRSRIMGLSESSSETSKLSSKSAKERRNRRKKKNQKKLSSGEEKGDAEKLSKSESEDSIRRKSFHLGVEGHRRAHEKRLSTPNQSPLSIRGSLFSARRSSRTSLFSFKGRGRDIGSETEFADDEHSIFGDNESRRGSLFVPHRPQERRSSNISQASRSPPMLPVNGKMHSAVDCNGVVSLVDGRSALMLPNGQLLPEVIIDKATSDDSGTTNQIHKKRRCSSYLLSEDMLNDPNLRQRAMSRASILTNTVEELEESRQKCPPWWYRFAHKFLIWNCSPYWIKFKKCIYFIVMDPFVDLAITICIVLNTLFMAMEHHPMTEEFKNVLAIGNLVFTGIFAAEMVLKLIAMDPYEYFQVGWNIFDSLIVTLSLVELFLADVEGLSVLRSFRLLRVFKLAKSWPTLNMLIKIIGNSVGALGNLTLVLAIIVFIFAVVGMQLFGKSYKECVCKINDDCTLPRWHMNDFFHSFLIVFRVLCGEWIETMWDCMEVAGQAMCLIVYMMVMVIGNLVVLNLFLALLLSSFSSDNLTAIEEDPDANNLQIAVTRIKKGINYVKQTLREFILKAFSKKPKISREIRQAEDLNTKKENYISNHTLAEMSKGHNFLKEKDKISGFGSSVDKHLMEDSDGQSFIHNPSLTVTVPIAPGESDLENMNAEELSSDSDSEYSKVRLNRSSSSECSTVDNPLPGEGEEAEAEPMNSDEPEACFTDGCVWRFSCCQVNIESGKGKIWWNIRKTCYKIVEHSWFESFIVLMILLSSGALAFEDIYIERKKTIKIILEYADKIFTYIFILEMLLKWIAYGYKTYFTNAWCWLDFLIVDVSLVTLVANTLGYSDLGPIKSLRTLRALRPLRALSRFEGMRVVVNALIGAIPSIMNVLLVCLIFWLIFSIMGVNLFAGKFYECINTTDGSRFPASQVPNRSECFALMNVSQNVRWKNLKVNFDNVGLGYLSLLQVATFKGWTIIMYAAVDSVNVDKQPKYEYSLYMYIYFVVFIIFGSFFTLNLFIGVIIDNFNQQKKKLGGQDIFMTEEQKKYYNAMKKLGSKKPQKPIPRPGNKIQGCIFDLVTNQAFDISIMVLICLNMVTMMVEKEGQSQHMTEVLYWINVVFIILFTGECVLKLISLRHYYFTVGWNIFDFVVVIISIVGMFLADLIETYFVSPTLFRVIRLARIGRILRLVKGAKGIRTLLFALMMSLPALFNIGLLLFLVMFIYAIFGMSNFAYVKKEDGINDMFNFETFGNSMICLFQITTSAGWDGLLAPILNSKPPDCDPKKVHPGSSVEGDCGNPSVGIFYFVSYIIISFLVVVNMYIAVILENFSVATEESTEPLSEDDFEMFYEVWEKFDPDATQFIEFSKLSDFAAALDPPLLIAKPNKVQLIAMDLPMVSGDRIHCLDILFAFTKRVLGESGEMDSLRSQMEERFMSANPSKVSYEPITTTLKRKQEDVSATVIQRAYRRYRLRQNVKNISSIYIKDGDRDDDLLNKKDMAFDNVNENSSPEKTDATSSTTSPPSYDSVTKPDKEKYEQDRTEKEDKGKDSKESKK
T1 sequence (Q07699 19-218 partner): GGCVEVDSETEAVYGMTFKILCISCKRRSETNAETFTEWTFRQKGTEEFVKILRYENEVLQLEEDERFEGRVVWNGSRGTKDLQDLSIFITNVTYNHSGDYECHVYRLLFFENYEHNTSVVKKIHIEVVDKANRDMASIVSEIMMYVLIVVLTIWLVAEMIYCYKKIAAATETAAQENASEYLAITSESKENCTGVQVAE

`Cc1cccc(C)c1OCC(C)NC(=O)[C@H](N)CC(C)C` (stereo partly drawn) [Compound 2, (2R)-2-amino-N-(1-(2,6-dimethylphenoxy)propan-2-yl)-4-methylpentanamide]: the “hNav1.7: Reduction in current at 20 mV (normalized data) Delta Ratio” value is on record as −0.29, the “hNav1.7: Voltage dependence of activation (mV) VDEP” value was −10.00 mV, the “hNav1.7: Voltage dependence of fast inactivation (mV) VDEP” value was −8.20 mV and the “hNav1.7: Shift in voltage dependence of inactivation (mV) Delta Vhalf” value (“hNav1.7: Shift … (mV) Delta Vhalf” for short) is reported as −32.20 mV.
As to `Cc1cccc(C)c1OCC(C)NC(=O)[C@@H](N)CC(C)C` (stereo partly drawn) [Compound 3, (2S)-2-amino-N-(1-(2,6-dimethylphenoxy)propan-2-yl)-4-methylpentanamide], the “hNav1.7: Reduction in current at 20 mV (normalized data) Delta Ratio” value is reported as −0.28, the “hNav1.7: Voltage dependence of activation (mV) VDEP” value is −8.10 mV, the “hNav1.7: Voltage dependence of fast inactivation (mV) VDEP” value was −7.40 mV and the “hNav1.7: Shift … (mV) Delta Vhalf” value is −28.00 mV.
The matching figures for `CC(C)CC(N)C(=O)N[C@H](COc1cc(C(F)(F)F)cc(C(F)(F)F)c1)c1ccccc1` (stereo partly drawn) [Compound 4, 2-amino-N-((S)-2-(3,5-bis(trifluoromethyl)phenoxy)-1-phenylethyl)-4-methylpentanamide]: −0.27, −5.80 mV, −11.50 mV and −31.10 mV.
For `CC(C)CC(N)C(=O)N[C@H](C)COc1cc(C(F)(F)F)cc(C(F)(F)F)c1` (stereo partly drawn) [Compound 5, 2-amino-N-((R)-1-(3,5-bis(trifluoromethyl)phenoxy)propan-2-yl)-4-methylpentanamide], in that order: −0.26, −4.60 mV, −6.30 mV and −25.20 mV.
For `CC[C@H](C)[C@H](N)C(=O)NCCOc1cc(C(F)(F)F)cc(C(F)(F)F)c1` [Compound 7, (2S,3S)-2-amino-N-(2-(3,5-bis(trifluoromethyl)phenoxy)ethyl)-3-methylpentanamide], in that order: −0.24, −8.10 mV, −6.60 mV and −21.40 mV.
`N[C@H]1CCCC[C@H]1C(=O)NCCOc1cc(C(F)(F)F)cc(C(F)(F)F)c1` [Compound 8, (1R,2S)-2-amino-N-(2-(3,5-bis(trifluoromethyl)phenoxy)ethyl) cyclohexane-1-carboxamide]: the “hNav1.7: Reduction in current at 20 mV (normalized data) Delta Ratio” value is recorded as −0.23, the “hNav1.7: Voltage dependence of activation (mV) VDEP” value was −7.80 mV, the “hNav1.7: Voltage dependence of fast inactivation (mV) VDEP” value is recorded as −6.80 mV and the “hNav1.7: Shift … (mV) Delta Vhalf” value is recorded as −16.40 mV.
As to `N[C@H](C(=O)NCCOc1cc(C(F)(F)F)cc(C(F)(F)F)c1)c1ccccc1` [Compound 9, (S)-2-amino-N-(2-(3,5-bis(trifluoromethyl)phenoxy)ethyl)-2-phenylacetamide], the “hNav1.7: Reduction in current at 20 mV (normalized data) Delta Ratio” value is −0.21, the “hNav1.7: Voltage dependence of activation (mV) VDEP” value is −8.10 mV, the “hNav1.7: Voltage dependence of fast inactivation (mV) VDEP” value is recorded as −7.90 mV and the “hNav1.7: Shift … (mV) Delta Vhalf” value is recorded as −18.30 mV.
For `O=C(NCCOc1cc(C(F)(F)F)cc(C(F)(F)F)c1)[C@H]1CCCN1` [Compound 11, (R)-N-(2-(3,5-bis(trifluoromethyl)phenoxy)ethyl) pyrrolidine-2-carboxamide], in that order: −0.20, −5.00 mV, −3.90 mV and −19.70 mV.
